Here are results for four compounds from patent US12396994B2, “Compositions for improving physiological function with age” (The Regents Of The University Of Colorado, a body corporate, priority 2017, dated 2025).

For one assay, the system named is cells. The following applies: reported, trehalose in cells and in mice; cited from earlier work.
Assay [1] concerns human umbilical vein endothelial cells (HUVEC). Put plainly: Autophagy induction in HUVEC, Cyto-ID fluorescence microplate detection. Format: cell-based. The following applies: 24 h. On the procedure:
First, we compiled a library of naturally occurring compounds known to enhance autophagy. Then, we calculated physiologically relevant concentrations of these compounds based on existing data (e.g., previously reported post-prandial plasma concentrations), and we tested each for its ability to induce autophagy at its calculated concentration alone and/or in combination with other candidate compounds. […] In all experiments, autophagy was assessed in human umbilical vein endothelial cells (HUVEC), because of their relevance to vascular physiological measures (in vivo measures, below). Pooled HUVEC cultures obtained from Cascade Biologics were grown in endothelial cell-specific medium (Lonza) at 37° C. in a […] incubator. Third passage cells were seeded into 96-well plates and allowed to reach 70% confluency, at which point candidate treatment compounds or combinations were applied for 24 hours. […] Autophagy was assessed using Enzo Life Sciences Cyto-ID autophagy detection reagents (fluorescence microplate detection of autophagic structures) according to manufacturers instructions on an M5 Spectramax fluorescent plate reader (Molecular Devices). Candidate AEON formulations were designated as AEON-1, -2, etc.
To identify a mixture of food-safe compounds that synergistically activates autophagy (the cellular process of recycling damaged internal components), we screened a library of natural compounds reported to induce autophagy in vitro (in cells). […] Autophagy was assessed via fluorescent microplate assay and confirmed by microscopy in cultured human umbilical vein endothelial cells treated for 24 hours.

Where [2] appears, read: low (physiologically relevant) doses, ingredient alone (trehalose 5 mM).

SMILES strings stand for the structures.

Take `Cn1c(=O)c2c(ncn2C)n(C)c1=O` [caffeine]: the “Concentration at which the single agent induces autophagy” value with cells is 1 to 20 mM.

Consider `C=C1CC[C@H](O)C/C1=C/C=C1\CCC[C@]2(C)[C@@H]([C@H](C)CCCC(C)C)CC[C@@H]12` [cholecalciferol], for which, in assay [1] (setting [2]), the “Autophagy induction (relative microplate fluorescence)” value is “had no effect on autophagy”.

As to `O=C(O[C@@H]1Cc2c(O)cc(O)cc2O[C@@H]1c1cc(O)c(O)c(O)c1)c1cc(O)c(O)c(O)c1` [epigallocatechin gallate], in assay [1] (setting [2]), the “Autophagy induction (relative microplate fluorescence)” value is given as “had no effect on autophagy”.

For `OC[C@H]1O[C@H](O[C@H]2O[C@H](CO)[C@@H](O)[C@H](O)[C@H]2O)[C@H](O)[C@@H](O)[C@@H]1O` [trehalose], the “Autophagy induction (relative microplate fluorescence)” value in assay [1] (established inducers at rapamycin 0.5 μM, trehalose 50 mM (high dose), FIG. 1A) is “significantly stimulated autophagy”; in assay [1] (setting [2]), “had no effect on autophagy”. In the assay on cells, the “Concentration at which the single agent induces autophagy” value is 50 to 100 mM.
